Results on one compound are retold here after ChEMBL document CHEMBL5120900, “Structure-Based Discovery of a Series of NSD2-PWWP1 Inhibitors” (J Med Chem, 2022).

Test [1] has as its system KMS-11. As to the kind of experiment: Antiproliferative activity against human KMS-11 cells assessed as inhibition of cell proliferation measured after 6 days by CCK8 assay. It counts as functional, cell-based. Particulars: KMS-11, 144 h. In general terms: Tetrazolium assays rely on reduction of a dye to a coloured formazan, in cell work by metabolically active cells.
For test [2], the system named is KMS-11. Description: Induction of apoptosis in human KMS-11 cells assessed as late apoptotic cells at 5 uM measured after 72 hrs by Annexin V FITC/PI staining based flow cytometry analysis (reference value: 13.3 %). The test is classed as functional. A general note: In flow cytometry, cells or beads pass a laser one at a time.
The test system of test [3] is KMS-11. As to the kind of experiment: Induction of apoptosis in human KMS-11 cells assessed as necrotic cells at 5 uM measured after 72 hrs by Annexin V FITC/PI staining based flow cytometry analysis (reference value: 0.88%). The test is classed as functional.
For test [4], the target named is T1, Histone-lysine N-methyltransferase NSD2 (Homo sapiens) (UniProt O96028).
T1 sequence (whole entry): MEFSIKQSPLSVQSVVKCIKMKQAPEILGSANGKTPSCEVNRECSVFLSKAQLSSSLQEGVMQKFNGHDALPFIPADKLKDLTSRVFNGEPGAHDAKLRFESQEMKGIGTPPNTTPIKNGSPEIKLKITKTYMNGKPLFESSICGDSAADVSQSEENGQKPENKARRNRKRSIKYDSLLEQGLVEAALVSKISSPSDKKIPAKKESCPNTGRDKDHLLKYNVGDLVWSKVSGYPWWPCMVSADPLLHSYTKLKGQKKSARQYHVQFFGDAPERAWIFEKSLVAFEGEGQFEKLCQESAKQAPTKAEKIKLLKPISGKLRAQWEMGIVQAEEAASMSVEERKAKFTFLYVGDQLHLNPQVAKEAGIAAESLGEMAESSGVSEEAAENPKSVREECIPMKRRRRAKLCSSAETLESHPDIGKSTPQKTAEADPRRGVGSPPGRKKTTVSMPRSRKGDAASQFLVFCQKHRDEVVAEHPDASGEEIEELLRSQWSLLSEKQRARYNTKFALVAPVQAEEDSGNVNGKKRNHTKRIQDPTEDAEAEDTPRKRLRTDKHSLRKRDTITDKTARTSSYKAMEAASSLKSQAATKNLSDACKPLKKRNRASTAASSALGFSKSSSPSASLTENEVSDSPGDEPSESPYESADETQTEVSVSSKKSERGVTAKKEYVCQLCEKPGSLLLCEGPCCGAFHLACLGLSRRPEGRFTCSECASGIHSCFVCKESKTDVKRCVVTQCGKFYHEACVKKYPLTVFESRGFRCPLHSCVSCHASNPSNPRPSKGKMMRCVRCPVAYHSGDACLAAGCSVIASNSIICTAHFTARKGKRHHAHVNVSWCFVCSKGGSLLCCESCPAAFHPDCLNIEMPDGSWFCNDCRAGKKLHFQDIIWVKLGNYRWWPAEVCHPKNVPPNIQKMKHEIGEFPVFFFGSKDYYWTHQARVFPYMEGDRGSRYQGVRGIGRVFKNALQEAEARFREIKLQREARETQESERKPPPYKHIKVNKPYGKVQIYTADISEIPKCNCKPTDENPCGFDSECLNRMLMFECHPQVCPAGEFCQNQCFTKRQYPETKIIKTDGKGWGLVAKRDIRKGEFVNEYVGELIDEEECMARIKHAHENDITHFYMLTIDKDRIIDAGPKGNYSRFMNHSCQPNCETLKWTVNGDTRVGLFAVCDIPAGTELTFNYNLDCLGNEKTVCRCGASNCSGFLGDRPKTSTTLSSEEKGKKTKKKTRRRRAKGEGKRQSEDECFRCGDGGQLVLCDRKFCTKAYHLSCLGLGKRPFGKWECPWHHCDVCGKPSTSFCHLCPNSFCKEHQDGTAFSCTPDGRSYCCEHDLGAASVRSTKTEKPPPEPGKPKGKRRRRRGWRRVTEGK
Description: Inhibition of NSD2 in human RS4-11 cells assessed as decrease in TEMEL2 gene expression at 10 uM incubated for 72 hrs by RT-PCR analysis. The test is classed as cell-based.

The test system of test [5] is MV4-11. As to the kind of experiment: Induction of apoptosis in human MV4-11 cells assessed as necrotic cells at 5 uM measured after 72 hrs by Annexin V FITC/PI staining based flow cytometry analysis (reference value: […]). The test is classed as functional.
Test [6] concerns KMS-11. Description: Induction of apoptosis in human KMS-11 cells assessed as necrotic cells at 10 uM measured after 72 hrs by Annexin V FITC/PI staining based flow cytometry analysis (reference value: 0.88%). The test is classed as functional.
Test [7] deals with KMS-11. As to the kind of experiment: Induction of apoptosis in human KMS-11 cells assessed as viable cells at 5 uM measured after 72 hrs by Annexin V FITC/PI staining based flow cytometry analysis (reference value: 69.4%). It counts as functional. Particulars: read-out: Activity.
For test [8], the target named is T1, Histone-lysine N-methyltransferase NSD2 (Homo sapiens). Description: Inhibition of NSD2 in human RS4-11 cells assessed as decrease in NCAM1 gene expression at 10 uM incubated for 72 hrs by RT-PCR analysis. It counts as cell-based.
The test system of test [9] is MV4-11. As to the kind of experiment: Induction of apoptosis in human MV4-11 cells assessed as early apoptotic cells at 5 uM measured after 72 hrs by Annexin V FITC/PI staining based flow cytometry analysis (reference value: 4.58 %). The test is classed as functional.
Test [10] relates to MV4-11. As to the kind of experiment: Antiproliferative activity against human MV4-11 cells assessed as inhibition of cell proliferation measured after 6 days by CCK8 assay. As to conditions: MV4-11, 144 h. It counts as functional, cell-based.
In test [11] the test system is KMS-11. Description: Cell cycle arrest in human KMS-11 cells assessed as increase in accumulation of G0/G1 phase at 5 to 10 uM measured after 24 hrs by PI staining based flow cytometric analysis. The test is classed as functional. As to conditions: dose 5-10 µM.
Test [12] has as its system MV4-11. Description: Induction of apoptosis in human MV4-11 cells assessed as necrotic cells at 10 uM measured after 72 hrs by Annexin V FITC/PI staining based flow cytometry analysis (reference value: […]). It counts as functional.
The next test relates to RS4-11. Description: Antiproliferative activity against human RS4-11 cells assessed as inhibition of cell proliferation measured after 6 days by CCK8 assay. It counts as functional, cell-based. Particulars: RS4-11, 144 h.
The target of test [13] is T1, Histone-lysine N-methyltransferase NSD2 (Homo sapiens). Description: Inhibition of NSD2 in human KMS-11 cells assessed as decrease in NCAM1 gene expression at 10 uM incubated for 72 hrs by RT-PCR analysis. It counts as cell-based.
For test [14], the system named is KMS-11. As to the kind of experiment: Induction of apoptosis in human KMS-11 cells assessed as early apoptotic cells at 5 uM measured after 72 hrs by Annexin V FITC/PI staining based flow cytometry analysis (reference value: 16.5 %). The test is classed as functional.
Test [15] deals with KMS-11. As to the kind of experiment: Induction of apoptosis in human KMS-11 cells assessed as early apoptotic cells at 10 uM measured after 72 hrs by Annexin V FITC/PI staining based flow cytometry analysis (reference value: 16.5 %). It counts as functional.
For test [16], the system named is MV4-11. As to the kind of experiment: Induction of apoptosis in human MV4-11 cells assessed as viable cells at 10 uM measured after 72 hrs by Annexin V FITC/PI staining based flow cytometry analysis (reference value: 91.7%). Particulars: read-out: Activity. The test is classed as functional.
Test [17] relates to KMS-11. As to the kind of experiment: Induction of apoptosis in human KMS-11 cells assessed as viable cells at 10 uM measured after 72 hrs by Annexin V FITC/PI staining based flow cytometry analysis (reference value: 69.4%). It counts as functional. As to conditions: read-out: Activity.
Test [18] addresses T1, Histone-lysine N-methyltransferase NSD2 (Homo sapiens). Description: Inhibition of NSD2 in human KMS-11 cells assessed as decrease in TEMEL2 gene expression at 10 uM incubated for 72 hrs by RT-PCR analysis. The test is classed as cell-based.

By pIC50 is commonly meant the IC50 on a negative log10 scale, so that one unit is a factor of ten.

SMILES strings stand for the structures. pIC50: −log10 of the molar value. Activity calls are given as the source filed them. No cut-off for these calls is given here.

`Cc1cc(CN2CCC(N)CC2)cc(C)c1-c1ncn(C)c1-c1ccc(C#N)c2ccccc12`: the results for the pIC50 in the test on KMS-11 [1], in the test with MV4-11 [10] and with RS4-11 were 5.07, 5.65 and 5.20, respectively. Also, the Activity in the test with KMS-11 [2] worked out at 16.5%; with KMS-11 [3] it was 0.69%; with MV4-11 [5], 0.4%; with KMS-11 [6], 1.86%; in the test with MV4-11 [9], 6.26%; in the test with MV4-11 [12], 1.56%. For the same compound, the Activity came out at 21.1% in the test on KMS-11 [14] and 28.7% in the test on KMS-11 [15]. In addition, the inhibition entry in [4], in [8], in [13] and in test [18] was “Active” each time. In addition, the viability at 5 µM in the test with KMS-11 [7] is 61.7%. Besides, in the test on KMS-11 [11], the result was Active. In addition, the viability at 10 µM with MV4-11 [16] is 37.3%; in the test with KMS-11 [17], 36.8%.
